Counter-ions that a name gives are not always drawn.
Experiments:
[1] = system: NOTCH target genes; assay: NOTCH target gene expression in whole blood of Phase 1 patients (Nanostring); type: in vivo; conditions: Homo sapiens, 600 mg dose group, CCND3, HEY1, IL7Rα, NOTCH1, NOTCH2, read-out: Inhibition range, NOTCH target down regulation
Method: In addition to hair follicles, gene expression profiling to measure changes in NOTCH target genes was also performed in whole blood as an alternative surrogate tissue.
Whole blood samples for gene expression analysis were collected in PAXgene Blood RNA Tubes and RNA extracted following their standard Blood RNA Kit for silica-membrane-based RNA isolation and purification (Beckton Dickinson). RNA samples were tested for gene expression profiling on a Nanostring platform.
(§1) Table 1: NOTCH target down regulation in hair follicles and blood cells from Phase 1 patients. Target gene down regulation (CCND3, cyclin-D3; HES1, Hairy and enhance of split-1; HES4, Hairy and enhance of split-4; HESS, Hairy and enhance of split-5; HEY1, hes related family bHLH transcription factor with YRPW motif1; HEY2; hes related family bHLH transcription factor with YRPW motif 2; HEYL, hes-related family bHLH transcription factor with YRPW motif-like; IL7R-α, Interleukin-7 receptor subunit alpha; NOTCH1; NOTCH2; NRARP (NOTCH Regulated Ankyrin Repeat Protein): […]

[2] = Phase I/IIA dose escalation: visual symptoms (eye-related AE) per dose group; type: in vivo, human
Method: The dosing will be 15, 30, 60, 120, 170, 250, 400, or 600 mg of the 6-(4-Tert-Butylphenoxy)Pyridin-3-Amine monohydrochloride salt or higher per day or alternatively 20, 40, 60, 120, 170, 250, 400, or 600 mg of the 6-(4-Tert-Butylphenoxy)Pyridin-3-Amine monohydrochloride salt or higher per day. Dosing of 15, 30, 60, 120, 170, 250, 400, or 600 mg of the 6-(4-Tert-Butylphenoxy)Pyridin-3-Amine monohydrochloride salt corresponds to dosing of 13, 26, 52, 104, 148, 217, 348, or 522 mg of 6-(4-Tert-Butylphenoxy)Pyridin-3-Amine (free base). Dosing of 20, 40, 60, 120, 170, 250, 400, or 600 mg of the 6-(4-Tert-Butylphenoxy)Pyridin-3-Amine monohydrochloride salt corresponds to dosing of 17, 35, 52, 104, 148, 217, 348, or 522 mg of 6-(4-Tert-Butylphenoxy)Pyridin-3-Amine (free base). For this study, 6-(4-Tert-Butylphenoxy)Pyridin-3-Amine monohydrochloride salt was formulated into a capsule having a drug load of 5, 10, 20, 50 and 100 mg, respectively intended to be administered orally. • Patients will meet the following criteria:
In the dose escalation cohort, patients in dose group (DG) 4 receiving 120mg of 6-(4-Tert-Butylphenoxy)Pyridin-3-Amine monohydrochloride salt and patients in higher dose groups reported visual symptoms with increasing incidence. It is believed that the occurrence of visual symptoms is a pharmacodynamic effect of 6-(4-Tert-Butylphenoxy)Pyridin-3-Amine. This makes a dose of 120 mg and higher of the 6-(4-Tert-Butylphenoxy)Pyridin-3-Amine monohydrochloride salt the therapeutic dose of choice.

[3] = system: NOTCH target genes; assay: NOTCH target gene expression in hair follicles of Phase 1 patients (Nanostring); type: in vivo, human; conditions: Homo sapiens, hair follicle, read-out: Inhibition range, NOTCH target down regulation
From the text: Hair follicles were obtained at pre-defined time points to measure changes in NOTCH target genes expression by 6-(4-Tert-Butylphenoxy)Pyridin-3-Amine treatment. NOTCH target gene down-regulation in hair follicles has been reported to be a robust and indicative biomarker that correlates with both clinical efficacy and the incidence of DLTs (Tanis K Q, et al. Clin Pharmacol Ther 2016; 99(4):370-80; Cook N, et al. BJC 2018; 118(6):793-801).
Between 5 to 10 hairs were plucked to extract the complete and undamaged hairbulb (full hair follicle), and processed as described in Camidge D R, et al. Br J Cancer 2005; 92:1837-41 and Bradley B J, et al. Mol EcolNotes 2005; 5:961-4. RNA concentration was measured by Qubit (RNAHighSensitivity), and RNA integrity was evaluated on a RNA 6000 Pico chip. RNA samples were tested for gene expression profiling on a Nanostring platform.
as §1

## CC(C)(C)c1ccc(Oc2ccc(N)cn2)cc1 [6-(4-Tert-Butylphenoxy)Pyridin-3-Amine monohydrochloride]
[1]
  inhibition at 600 mg: ≤ 50%
[2]; DG4 (120 mg)
  Eye-related AE, % on total pts per DG: 43%
[2]; DG4 and higher dose groups, once daily oral
  dose at and above which visual symptoms were reported (increasing incidence): ≥ 120 mg
[2]; DG5 (170 mg)
  Eye-related AE, % on total pts per DG: 67%
[2]; DG6 (250 mg)
  Eye-related AE, % on total pts per DG: 75%
[2]; DG7 (400 mg)
  Eye-related AE, % on total pts per DG: 67%
[2]; DG8 (600 mg)
  Eye-related AE, % on total pts per DG: 67%
[2]; all dose groups
  Adaptative visual difficulty, #AEs: 1
  Blurred vision, #AEs: 6
  Eye disorder, #AEs: 2
  Eye-related AE Total, #AEs: 26
  Intermittent color vision deficiency/ Intermittent blurred vision, #AEs: 2
  Photophobia, #AEs: 2
  Photopsy, #AEs: 3
  Transient defect in accommodation to dim light, #AEs: 7
  Visual alteration, #AEs: 2
  Visual disturbance in light exposure, #AEs: 1
[3]; 60 mg dose group, HES4, HES5, NRARP
  inhibition at 60 mg: ≤ 80%
[3]; 120 mg dose group, CCND3, HES4, HES5, HEYL, HEY2
  inhibition at 120 mg: ≤ 95%
[3]; 170 mg dose group, HES1
  inhibition at 170 mg: ≤ 75%
[3]; 250 mg dose group, CCND3, HES1, HEY2, NRARP
  inhibition at 250 mg: ≤ 80%

From patent publication US20230338347A1, “New Use of Inhibitors of the Notch Signalling Pathway” (Cellestia Biotech AG, priority 2020, published 2023)
